Data set [1] addresses IRAK4 (Homo sapiens (Human), UniProt Q9NWZ3). Description: IRAK4 Inhibition Assay. Format: biochemical. The following applies: ATP 500 μM; IRAK4 0.6 nM. The essentials: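 Enzyme 0.6 nM, ATP 500 μM, FL-peptide 1.5 μM, DMSO 1.6%; HEPES pH 7.2/MgCl2/Brij 35/DTT buffer. RT, 60 min, EDTA stop. Mobility-shift product/substrate ratio; % inhib vs no-enzyme and vehicle controls.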
Data set [2] is described as follows: Caco Permeability Assay. The following applies: human, Caco-2, Caco-2 cells, 3 μM compound. Format: in vitro ADME. Here is the method:
Thirteen to 27 days prior to assay, Caco-2 cells were seeded onto collagen-coated polycarbonate filter membranes in 24-well transwell plates at a density of 1.45×10^5 cells/cm^2, approximately 4.8×10^4 cells per well. The cells were grown in a culture medium consisting of DMEM supplemented with 10% fetal bovine serum, 10 mM HEPES, 1% nonessential amino acids, 2 mM L-glutamine, 100 U/mL penicillin-G, and 100 μg/mL streptomycin. The culture medium was replaced every 3 days and the cells were maintained at 37° C. in a 95% relative humidity and 5% CO2 atmosphere. The cells were evaluated for tight junction formation just prior to assay. The test compound was solubilized to 10 mM in 100% DMSO and diluted to 3 μM in assay buffer. Permeability studies were initiated by adding 200 μL assay buffer plus/minus compound to the apical transwell compartment and 600 μL assay buffer plus/minus compound to the basolateral compartment of the 24-well transwell low-binding cluster plate. For apical-to-basolateral (A to B) permeability (absorptive direction), buffer containing compound was placed in the apical compartment (donor wells), while buffer alone was placed in the corresponding basolateral compartments (receiver wells). For basolateral-to-apical (B to A) permeability (secretive direction), buffer containing compound was placed in the basolateral compartment (donor wells), while buffer alone was placed in the corresponding apical compartments (receiver wells). Transwells were then incubated for 2 hours at 37° C. in a 95% relative humidity and 5% CO2 atmosphere with gentle agitation. Following incubation, 100 μL was removed from each apical and basolateral compartment and transferred to 96-well low binding plates that had been previously loaded with 100 µL/well of acetonitrile containing 250 nM propranolol, 250 nM diclofenac, and 500 nM tolbutamide as internal standards. The samples were subsequently analyzed by LC-MS/MS to determine concentrations of compound.

Data set [3] concerns IL-6 levels in human whole blood stimulated with a TLR2 agonist. Kind of data set: IRAK4 Whole Blood Assay (lipoteichoic acid/TLR2-stimulated IL-6). In kind it is cell-based. The following applies: lipoteichoic acid 10 μg/mL, IL-6 readout. The essentials: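 ACD-A-anticoagulated human whole blood was preincubated with compounds for 60 min at 37 °C under 5% CO2. It was then stimulated with 10 μg/mL lipoteichoic acid (final) in RPMI for 5 h. IL-6 in plasma supernatants was measured by flow cytometry bead assay.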

Structures are written as SMILES. A value given as a limit tells only on which side of the number the result lay.

This is an account of results in patent publication US10618903B2, “Heteroaryl substituted aminopyridine compounds” (BRISTOL-MYERS SQUIBB COMPANY, priority 2015, dated 2020).

IRAK4, sequence (Q9NWZ3 whole entry): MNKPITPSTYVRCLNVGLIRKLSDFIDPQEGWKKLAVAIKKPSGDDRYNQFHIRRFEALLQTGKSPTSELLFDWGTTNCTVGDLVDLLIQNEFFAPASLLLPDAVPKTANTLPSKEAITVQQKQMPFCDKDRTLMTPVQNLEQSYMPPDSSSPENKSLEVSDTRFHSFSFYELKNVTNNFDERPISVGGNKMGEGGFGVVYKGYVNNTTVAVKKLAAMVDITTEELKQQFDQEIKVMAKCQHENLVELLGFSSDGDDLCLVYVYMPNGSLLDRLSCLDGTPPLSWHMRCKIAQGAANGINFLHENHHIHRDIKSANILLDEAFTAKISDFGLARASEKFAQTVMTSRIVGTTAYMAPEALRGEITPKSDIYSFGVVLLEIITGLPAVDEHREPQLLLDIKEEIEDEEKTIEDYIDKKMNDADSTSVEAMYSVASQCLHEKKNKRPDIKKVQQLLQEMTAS

Consider `CC(C)OC1CC(Nc2cc(-c3cnn4cc(Cl)cnc34)ncc2C(=O)NC[C@@H](F)C(C)(C)O)CC1(F)F` (single isomer, unassigned) [Example 15], for which, in data set [1], the IC50 is 4 nM. For the same molecule, in data set [2], the apparent permeability coefficient (Papp) at 2 h, 3 µM stood at 6.5 ×10⁻⁶ cm/s. The EC50 in data set [3] (Homo sapiens) came out at 660 nM.

Consider `CC(C)(O)[C@H](F)CNC(=O)c1cnc(-c2cnn3cc(Cl)cnc23)cc1NC1COCC1(F)F` (single isomer, unassigned) [Example 19], for which the IC50 in data set [1] came out at 3 nM. The molecule further displayed a Papp at 2 h, 3 µM in data set [2] of 4.9 ×10⁻⁶ cm/s. The EC50 in data set [3] stood at 620 nM.

As to `CC(C)Nc1cc(-c2cnn3cc(Cl)cnc23)ncc1C(=O)NC[C@@H](F)C(C)(C)O` [Example 1, (R)-6-(6-chloropyrazolo[1,5-a]pyrimidin-3-yl)-N-(2-fluoro-3-hydroxy-3-methylbutyl)-4-(isopropylamino)nicotinamide], the IC50 in data set [1] turned out to be 3 nM. In data set [2], this molecule gave a Papp at 2 h, 3 µM of 24.8 ×10⁻⁶ cm/s. This molecule also gave an EC50 in data set [3] (Homo sapiens) of 400 nM.

Regarding `CC(C)(O)c1cnc(Nc2cc(-c3cnn4cc(Cl)cnc34)ncc2C(=O)NC[C@@H](F)C(C)(C)O)s1` [Example 2, (R)-6-(6-chloropyrazolo[1,5-a]pyrimidin-3-yl)-N-(2-fluoro-3-hydroxy-3-methylbutyl)-4-((5-(2-hydroxypropan-2-yl)thiazol-2-yl)amino)nicotinamide], the 50% inhibitory concentration (IC50) in data set [1] was 8 nM. Moreover, the Papp at 2 h, 3 µM in data set [2] was below 1.5 ×10⁻⁶ cm/s. Further, a half-maximal response in data set [3] (Homo sapiens) (EC50) required 880 nM.

Turning to `CC(C)(O)[C@H](F)CNC(=O)c1cnc(-c2cnn3cc(Cl)cnc23)cc1NC1COC1` [Example 5, (R)-6-(6-chloropyrazolo[1,5-a]pyrimidin-3-yl)-N-(2-fluoro-3-hydroxy-3-methylbutyl)-4-(oxetan-3-ylamino)nicotinamide], in data set [1], the IC50 turned out to be 3 nM. In addition, in data set [2], the Papp at 2 h, 3 µM came to 17.5 ×10⁻⁶ cm/s. Also, a half-maximal response in data set [3] (Homo sapiens) (EC50) required 100 nM.

`CC(=O)N[C@H]1CC[C@H](NC(=O)c2cnc(-c3cnn4cc(C#N)cnc34)cc2NC(C)C)CC1` [Example 89, N-((1r,4r)-4-acetamidocyclohexyl)-6-(6-cyanopyrazolo[1,5-a]pyrimidin-3-yl)-4-(isopropylamino)nicotinamide] yielded a Papp at 2 h, 3 µM in data set [2] below 1.5 ×10⁻⁶ cm/s. Moreover, the EC50 in data set [3] (Homo sapiens) was 2960 nM.

As to `CC(C)(F)CNc1cc(-c2cnn3cc(C#N)cnc23)ncc1C(=O)NC[C@@H](F)C(C)(C)O` [Example 91, (R)-6-(6-cyanopyrazolo[1,5-a]pyrimidin-3-yl)-4-((2-fluoro-2-methylpropyl)amino)-N-(2-fluoro-3-hydroxy-3-methylbutyl)nicotinamide], the Papp at 2 h, 3 µM in data set [2] is 5 ×10⁻⁶ cm/s. In data set [3] (Homo sapiens), this molecule had an EC50 of 2970 nM.

On to `CC(C)(O)[C@H](F)CNC(=O)c1cnc(-c2cnn3cc(C#N)cnc23)cc1NC1CCC1` [Example 96, (R)-6-(6-cyanopyrazolo[1,5-a]pyrimidin-3-yl)-4-(cyclobutylamino)-N-(2-fluoro-3-hydroxy-3-methylbutyl)nicotinamide], for which the Papp at 2 h, 3 µM in data set [2] amounted to 8.3 ×10⁻⁶ cm/s. Further, the EC50 in data set [3] (Homo sapiens) was 270 nM.

Consider `CC(C)(O)[C@H](F)CNC(=O)c1cnc(-c2cnn3cc(C#N)cnc23)cc1NC1CCC(F)(F)C1O` (stereo partly drawn) [Example 107, 6-(6-cyanopyrazolo[1,5-a]pyrimidin-3-yl)-4-((3,3-difluoro-2-hydroxycyclopentyl)amino)-N—((R)-2-fluoro-3-hydroxy-3-methylbutyl)nicotinamide], for which the Papp at 2 h, 3 µM in data set [2] is below 1.5 ×10⁻⁶ cm/s. In data set [3] (Homo sapiens), this molecule showed an EC50 of 430 nM.

Turning to `CC(C)(O)[C@H]1CC[C@H](NC(=O)c2cnc(-c3cnc4cc(Cl)cnn34)cc2Nc2cnn(CC(F)F)c2)CC1` [Example 264, 6-(7-chloroimidazo[1,2-b]pyridazin-3-yl)-4-((1-(2,2-difluoroethyl)-1H-pyrazol-4-yl)amino)-N-((1r,4r)-4-(2-hydroxypropan-2-yl)cyclohexyl)nicotinamide], the IC50 in data set [1] was determined as 2 nM. The molecule further came in with an EC50 in data set [3] (Homo sapiens) of 910 nM.

Take `CC(F)(F)Cn1ccc(Nc2cc(-c3cnc4cc(C#N)cnn34)ncc2C(=O)NC[C@@H](F)C(C)(C)O)n1` [Example 268, (R)-6-(7-cyanoimidazo[1,2-b]pyridazin-3-yl)-4-((1-(2,2-difluoropropyl)-1H-pyrazol-3-yl)amino)-N-(2-fluoro-3-hydroxy-3-methylbutyl)nicotinamide]: the IC50 in data set [1] came to 3 nM. The molecule further registered an EC50 in data set [3] (Homo sapiens) of 960 nM.

Turning to `CC(F)(F)Cn1cc(Nc2cc(-c3cnc4cc(C#N)cnn34)ncc2C(=O)NC[C@@H](F)C(C)(C)F)cn1` [Example 269, (R)-6-(7-cyanoimidazo[1,2-b]pyridazin-3-yl)-N-(2,3-difluoro-3-methylbutyl)-4-((1-(2,2-difluoropropyl)-1H-pyrazol-4-yl)amino)nicotinamide], the IC50 in data set [1] turned out to be 2 nM. Also, the response in data set [3] (Homo sapiens) was half-maximal at 560 nM (EC50).

For `Cn1cc(Nc2cc(-c3cnc4cc(Cl)cnn34)ncc2C(=O)NC[C@@H](F)C(C)(C)O)cn1` [Example 271, (R)-6-(7-chloroimidazo[1,2-b]pyridazin-3-yl)-N-(2-fluoro-3-hydroxy-3-methylbutyl)-4-((1-methyl-1H-pyrazol-4-yl)amino)nicotinamide], the IC50 in data set [1] is 4 nM. The midpoint of the response in data set [3] (Homo sapiens), the EC50, lay at 170 nM.

For the molecule `CC(C)(O)[C@H](F)CNC(=O)c1cnc(-c2cnc3cc(C#N)cnn23)cc1Nc1cnn(C(F)F)c1` [Example 273, (R)-6-(7-cyanoimidazo[1,2-b]pyridazin-3-yl)-4-((1-(difluoromethyl)-1H-pyrazol-4-yl)amino)-N-(2-fluoro-3-hydroxy-3-methylbutyl)nicotinamide], the IC50 in data set [1] was found to be 7 nM. The EC50 in data set [3] (Homo sapiens) was 380 nM.

As to `Cn1cc(Nc2cc(-c3cnc4cc(C#N)cnn34)ncc2C(=O)NC[C@@H](F)C(C)(C)O)cn1` [Example 274, (R)-6-(7-cyanoimidazo[1,2-b]pyridazin-3-yl)-N-(2-fluoro-3-hydroxy-3-methylbutyl)-4-((1-methyl-1H-pyrazol-4-yl)amino)nicotinamide], the concentration for half-maximal inhibition (IC50) in data set [1] was 9 nM. In data set [3] (Homo sapiens), this molecule returned a concentration for a half-maximal effect (EC50) of 590 nM.

Turning to `CC(C)(O)[C@H](F)CNC(=O)c1cnc(-c2cnc3cc(Cl)cnn23)cc1Nc1cnn(CC(F)(F)F)c1` [Example 275, (R)-6-(7-chloroimidazo[1,2-b]pyridazin-3-yl)-N-(2-fluoro-3-hydroxy-3-methylbutyl)-4-((1-(2,2,2-trifluoroethyl)-1H-pyrazol-4-yl)amino)nicotinamide], the IC50 in data set [1] turned out to be 1 nM. For the same molecule, the EC50 in data set [3] (Homo sapiens) was 440 nM.

With `CC(C)(O)[C@H](F)CNC(=O)c1cnc(-c2cnc3cc(C#N)cnn23)cc1Nc1cnn(CC(F)(F)F)c1` [Example 276, (R)-6-(7-cyanoimidazo[1,2-b]pyridazin-3-yl)-N-(2-fluoro-3-hydroxy-3-methylbutyl)-4-((1-(2,2,2-trifluoroethyl)-1H-pyrazol-4-yl)amino)nicotinamide], the IC50 in data set [1] amounted to 2 nM. In addition, in data set [3] (Homo sapiens), the response was half-maximal at 80 nM (EC50).

Consider `CC(C)(F)Cn1cc(Nc2cc(-c3cnc4cc(C#N)cnn34)ncc2C(=O)NC[C@@H](F)C(C)(C)F)cn1` [Example 282, (R)-6-(7-cyanoimidazo[1,2-b]pyridazin-3-yl)-N-(2,3-difluoro-3-methylbutyl)-4-((1-(2-fluoro-2-methylpropyl)-1H-pyrazol-4-yl)amino)nicotinamide], for which, in data set [1], the IC50 stood at 2 nM. Further, the EC50 in data set [3] (Homo sapiens) is 710 nM.

Take `CC(C)(O)[C@H](F)CNC(=O)c1cnc(-c2cnc3cc(Cl)cnn23)cc1Nc1cnn(CCCF)c1` [Example 283, (R)-6-(7-chloroimidazo[1,2-b]pyridazin-3-yl)-N-(2-fluoro-3-hydroxy-3-methylbutyl)-4-((1-(3-fluoropropyl)-1H-pyrazol-4-yl)amino)nicotinamide]: in data set [1], the half-maximal inhibitory concentration (IC50) stood at 2 nM. This molecule came in with an EC50 in data set [3] (Homo sapiens) of 340 nM.

Consider `CC(C)(O)[C@H](F)CNC(=O)c1cnc(-c2cnc3cc(Cl)cnn23)cc1Nc1cnn(C2CCC2)c1` [Example 285, (R)-6-(7-chloroimidazo[1,2-b]pyridazin-3-yl)-4-((1-cyclobutyl-1H-pyrazol-4-yl)amino)-N-(2-fluoro-3-hydroxy-3-methylbutyl)nicotinamide], for which the IC50 in data set [1] came to 3 nM. The molecule further came in with an EC50 in data set [3] (Homo sapiens) of 370 nM.

On to `CC(C)(O)[C@H](F)CNC(=O)c1cnc(-c2cnc3cc(C#N)cnn23)cc1N[C@@H]1CCN(c2ncc(F)cn2)C1` [Example 288, 6-(7-cyanoimidazo[1,2-b]pyridazin-3-yl)-N—((R)-2-fluoro-3-hydroxy-3-methylbutyl)-4-(((R)-1-(5-fluoropyrimidin-2-yl)pyrrolidin-3-yl)amino)nicotinamide], for which the IC50 in data set [1] is 9 nM. In addition, the EC50 in data set [3] (Homo sapiens) amounted to 390 nM.
